Source: US8629103B2, “Treatment of non-proliferative cystic disease of the breast” (New York University, priority 2010, dated 2014)
Entries after “also recorded” stand apart in the source; their conditions may differ. Starred links: 1 amine or outer side, 2 acyl side, 3 side chain; linkers in the order of their positions; H or OH if unused. Non-standard residues stand in square brackets, D forms with d. Residues, ends and D or L forms follow the SMILES beside them. Groups on a side chain read outwards from the residue. *: point of attachment. Ethylenediamine = C(CN[*:2])N[*:1]; Hyp = O=C(O)[C@@H]1C[C@@H](O)CN1; Phg = N[C@H](C(=O)O)c1ccccc1; CO = O=C([*:1])[*:2]; Bn = c1ccc(C*)cc1

Tests used:
[1] = system: IGF-I receptor, ERK, and AKT; experiment: Western blots of phosphorylation of IGF-I receptor, ERK and AKT in treated Brca1LoxP/Brca1LoxP mice; type: in vivo; settings: 4 month old Brca1LoxP/Brca1LoxP females; 7 days; PQ401 100 mg/kg thrice a week intraperitoneal; pasireotide 10 μg/kg/h by Alzet pump
Protocol: Western blots showing that the increased phosphorylation of IGF-I receptor and its downstream mediators ERK and AKT in Brca1^LoxP/Brca1^LoxP females is reduced by treatment with 100 mg/kg PQ401 thrice a week and 10 μg/kg/h pasireotide. The two WT samples are from age-matched, untreated C57Bl/6 control mice. PQ401 was administered by intraperitoneal injections, pasireotide by Alzet pump Model 2001. For both drugs, the course of treatment was 7 days.
FIG. 6 depicts Western blots showing the effects of IGF-I inhibition on the phosphorylation of IGF-I receptor, ERK, and AKT in 4 month old Brca1^LoxP/Brca1^LoxP. The increased phosphorylation of IGF-I receptor and its downstream mediators ERK and AKT in Brca1^LoxP/Brca1^LoxP females is reduced by treatment with 100 mg/kg PQ401 thrice a week and 10 μg/kg/h pasireotide. The two WT samples are from age-matched, untreated C57Bl/6 control mice. PQ401 was administered by intraperitoneal injections, pasireotide by Alzet pump Model 2001. For both drugs, the course of treatment was 7 days.

[2] = system: Brca1^LoxP/Brca1^LoxP mice; experiment: Mammary gland phenotype (whole mounts, hematoxylin-eosin sections, duct width, HANs) of treated Brca1LoxP/Brca1LoxP mice; type: in vivo; settings: for mammary gland phenotype (whole mounts, histology): 7 days; for width of mammary gland ducts / ductal dilatation: 10 μg/kg/h for 7 days by Alzet pump, vs vehicle (water)
Protocol: Representative whole mounts of mammary glands from 4 month old Brca1^LoxP/Brca1^LoxP females treated with water (upper photomicrographs) or 10 μg/kg/h pasireotide (lower photomicrographs) for 7 days. Both water and pasireotide were administered by Alzet pump Model 2001.
FIG. 8 depicts effects of pasireotide on the mammary gland phenotype of Brca1^LoxP/Brca1^LoxP mice. Representative hematoxylin-eosin sections of mammary glands from 4 month old Brca1^LoxP/Brca1^LoxP females treated with water (left) or pasireotide (center and right) for 7 days. Both water and pasireotide were administered by Alzet pump Model 2001. The dosage of pasireotide was 10 μg/kg/h.
FIG. 9 depicts effects of pasireotide on duct width of mammary glands of Brca1^LoxP/Brca1^LoxP mice. […] Both water and pasireotide were administered by Alzet pump Model 2001. Six animals were treated with pasireotide and five animals were treated with water (control). […]
The present inventor has made the surprising discovery that mice comprising loxP sites flanking exon 11 of the BRCA1 gene (formally known as Brca1^loxP/loxP, but also referred to herein as LoxP mice) display profoundly abnormal mammary gland development at an early age. LoxP mice were acquired from the National Institutes of Health Mouse Repository. The strain is Stock Brcal^tm2Cxd and the Strain code is 01XC8. Mice were maintained in accordance with the standards established by the Association for Assessment and Accreditation of Laboratory Animal Care (AAALAC) (New York University).
Representative whole mounts of mammary glands from 4 month old Brca1^LoxP/Brca1^LoxP females treated with water (upper photomicrographs) or 10 μg/kg/h pasireotide (lower photomicrographs) for 7 days are shown. Both water and pasireotide were administered by Alzet pump Model 2001. […] These findings were confirmed on a histological level as shown in FIG. 8 which depicts representative hematoxylin-eosin sections of mammary glands from 4 month old Brca1^LoxP/Brca1^LoxP females treated with water (left) or pasireotide (center and right) for 7 days. Both water and pasireotide (10 μg/kg/h) were administered by Alzet pump Model 2001. […] Both water and pasireotide were administered by Alzet pump Model 2001. […]

[3] = system: Ki67-positive epithelial cells in the mammary glands; experiment: Ki67 immunohistochemistry of mammary epithelial cells in treated Brca1LoxP/Brca1LoxP mice; type: in vivo; settings: 4 month old Brca1LoxP/Brca1LoxP mice; 7 days of treatment; vs vehicle
Text: The frequency of Ki67-positive mammary epithelial cells in C57Bl/6 controls treated with water (WT, water) is also presented. *, p<0.05 as compared with WT, water; **, p<0.01 as compared with WT, water; a, p<0.05 as compared with LoxP, water; b, p<0.01 as compared with LoxP, water.
The frequency of Ki67-positive mammary epithelial cells in C57Bl/6 controls treated with water (WT, water) is also presented. *, p<0.05 as compared with WT, water; **, p<0.01 as compared with WT, water; a, p<0.05 as compared with LoxP, water; b, p<0.01 as compared with LoxP, water. […] This finding is significant because Ki67 is a cancer antigen that is found in growing, dividing cells, but is absent in the resting phase of cell growth. Accordingly, Ki67 is viewed as a good tumor cell marker.

[4] = molecular target: IGF-I receptor (Homo sapiens, UniProt P08069); settings: cited from earlier work
Sequence of IGF-I receptor (P08069 31-1367, species assumed): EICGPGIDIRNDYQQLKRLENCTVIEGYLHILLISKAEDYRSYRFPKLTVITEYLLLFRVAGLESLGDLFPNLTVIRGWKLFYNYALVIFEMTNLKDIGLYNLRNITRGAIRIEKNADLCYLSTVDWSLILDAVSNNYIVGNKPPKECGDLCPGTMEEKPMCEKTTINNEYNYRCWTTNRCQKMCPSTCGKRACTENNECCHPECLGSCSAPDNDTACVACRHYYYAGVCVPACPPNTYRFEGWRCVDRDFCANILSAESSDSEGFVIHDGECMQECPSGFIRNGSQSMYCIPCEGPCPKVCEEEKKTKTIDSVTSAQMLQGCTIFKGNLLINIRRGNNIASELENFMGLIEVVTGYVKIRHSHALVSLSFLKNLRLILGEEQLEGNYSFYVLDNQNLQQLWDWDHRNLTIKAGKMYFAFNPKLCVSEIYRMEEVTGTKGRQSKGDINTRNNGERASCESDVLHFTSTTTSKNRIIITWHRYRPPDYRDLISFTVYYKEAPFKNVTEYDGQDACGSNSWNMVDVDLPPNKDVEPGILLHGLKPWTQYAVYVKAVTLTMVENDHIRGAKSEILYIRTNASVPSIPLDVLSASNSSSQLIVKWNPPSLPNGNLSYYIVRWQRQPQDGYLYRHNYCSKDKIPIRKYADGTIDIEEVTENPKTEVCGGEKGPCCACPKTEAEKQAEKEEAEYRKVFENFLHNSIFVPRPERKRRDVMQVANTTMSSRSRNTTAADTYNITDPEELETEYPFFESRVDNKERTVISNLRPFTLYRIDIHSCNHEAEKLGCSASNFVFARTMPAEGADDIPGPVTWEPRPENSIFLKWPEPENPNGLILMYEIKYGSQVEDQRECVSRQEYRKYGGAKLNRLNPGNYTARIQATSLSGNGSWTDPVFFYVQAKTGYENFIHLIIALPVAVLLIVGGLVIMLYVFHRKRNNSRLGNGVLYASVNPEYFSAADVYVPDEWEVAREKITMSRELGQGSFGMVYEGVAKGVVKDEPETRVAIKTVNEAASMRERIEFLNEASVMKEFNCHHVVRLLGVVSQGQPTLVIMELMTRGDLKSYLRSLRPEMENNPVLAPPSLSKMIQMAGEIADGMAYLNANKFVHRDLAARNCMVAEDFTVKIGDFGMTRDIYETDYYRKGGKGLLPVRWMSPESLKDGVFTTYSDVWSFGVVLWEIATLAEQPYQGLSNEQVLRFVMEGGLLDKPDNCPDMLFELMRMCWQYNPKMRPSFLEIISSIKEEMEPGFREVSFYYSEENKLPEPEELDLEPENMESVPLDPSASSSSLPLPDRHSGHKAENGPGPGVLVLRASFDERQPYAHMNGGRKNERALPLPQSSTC

[5] = system: somatostatin receptors; settings: cited from earlier work; for somatostatin receptors bound: of the 5 somatostatin receptors
[6] = system: mammary development in rats; settings: Ruan et al. 2006; cited from earlier work
[7] = system: growth hormone and estradiol induced mammary hyperplasia; settings: Kleinberg et al. 2011; cited from earlier work
[8] = system: breast cancer; settings: women with certain hyperplastic lesions of the breast; clinical evidence; cited from earlier work
[9] = 4 month old Brca1LoxP/Brca1LoxP females, pasireotide 10 μg/kg/h Alzet pump vs water, PQ401 intraperitoneal vs 8% ethanol/Tween 80 in PBS

For `COc1ccc(Cl)cc1NC(=O)Nc1cc(C)nc2ccccc12` [PQ401], the “phosphorylation of IGF-I receptor and its downstream mediators ERK and AKT” value [1] was “reduced”, the “mammary gland phenotype (whole mounts, histology)” value [2, 9] was “dramatically reduces” and the “Ki67-positive epithelial cells in the mammary glands (cell proliferation)” value [3] was “reduces; also recorded: significantly reduced”. The IGF-I receptor inhibition [4] was “very potent and specific”.

For `NCCCC[C@@H]1NC(=O)[C@@H](Cc2c[nH]c3ccccc23)NC(=O)[C@H](c2ccccc2)NC(=O)[C@@H]2C[C@@H](OC(=O)NCCN)CN2C(=O)[C@H](Cc2ccccc2)NC(=O)[C@H](Cc2ccc(OCc3ccccc3)cc2)NC1=O` [pasireotide] (cyclo([Hyp]([CO-Ethylenediamine])[Phg][dW]KY(Bn)F)), the “phosphorylation of IGF-I receptor and its downstream mediators ERK and AKT” value [1] was “reduced”, the “width of mammary gland ducts / ductal dilatation” value ([2]; 4 month old Brca1LoxP/Brca1LoxP females) was “effective in decreasing” and the “width of mammary gland ducts / ductal dilatation” value ([2]; 4 month old Brca1LoxP/Brca1LoxP females, listed as SOM230) was “significant effect on inhibiting; also recorded: significantly reduced”. For the same compound, the “mammary gland phenotype (whole mounts, histology)” value [2, 9] was “dramatically reduces”, the “formation of HANs (hyperplastic alveolar nodules)” value ([2]; LoxP mice at 4 months of age treated with SOM230) was “preventing” and the number of ducts ([2]; affected LoxP animals, SOM230 or control vehicle for 1 week) was “unchanged”. The “Ki67-positive epithelial cells in the mammary glands (cell proliferation)” value [3] was “reduces; also recorded: significantly reduced”, the “affinity for SSTR3 and/or SSTR5 receptors” value [5] was “has affinity” and the somatostatin receptors bound [5] was 4 of the 5. The “IRS-1 phosphorylation in the mammary gland (IGF-I action)” value [6] was “reduction”, the “growth hormone secretion from the pituitary” value [6] was “inhibitory effect” and the mammary development [6] was “prevents”. For the same compound, the “efficacy compared with tamoxifen in preventing growth hormone and estradiol-induced mammary hyperplasia” value [7] was “at least as effective as tamoxifen” and the “growth hormone and estradiol induced mammary hyperplasia” value [7] was “prevents”.

In the case of `CC/C(=C(\c1ccccc1)c1ccc(OCCN(C)C)cc1)c1ccccc1` [tamoxifen], the “growth hormone and estradiol induced mammary hyperplasia” value [7] is listed as “prevent” and the “prevention of the development of cancer” value [8] is listed as “about 50%”.

In the case of somatostatin-14 [SS-14], the “mammary gland phenotype (whole mounts, histology)” value ([2]; 9 month old Brca1LoxP/Brca1LoxP females, Alzet pump, vs water) is given as “reduces”, the “number of HANs” value ([2]; nine month old LoxP animals treated for a week) is given as “impressive reduction” and the somatostatin receptors bound [5] is given as “all”.
